The results in this text go back to the supplement of paper PMC10307832.

What all share (assay): relative viability (nuclei count vs DMSO), 5 days (fraction); higher = more cells survive
Compound in the assay “Olaparib + Linsitinib”: O=C(c1cc(Cc2n[nH]c(=O)c3ccccc23)ccc1F)N1CCN(C(=O)C2CC2)CC1 [Olaparib] + C[C@]1(O)C[C@@H](c2nc(-c3ccc4ccc(-c5ccccc5)nc4c3)c3c(N)nccn32)C1 [Linsitinib] (partner 1 µM)
In a few lines: (§1)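 A single step with final 0.05% Triton X-100, 1% formaldehyde and 1 ug/ml Hoechst fixed the cells and stained nuclei 5 days after treatment. Lung cancer cell lines in 1536-well plates had been treated by pin tool the day after seeding with one drug alone or a fixed anchor-drug dose plus five library-drug doses (not always all listed) in √10 steps, and nuclei were counted on 4× images. Relative viability is the ratio of nuclei in treated wells to nuclei in vehicle wells, taken as the median of duplicate plates.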

Compound in the assay “Olaparib + Decitabine”: O=C(c1cc(Cc2n[nH]c(=O)c3ccccc23)ccc1F)N1CCN(C(=O)C2CC2)CC1 [Olaparib] + Nc1ncn([C@H]2C[C@H](O)[C@@H](CO)O2)c(=O)n1 [Decitabine] (partner 2 µM)
In a few lines:
as §1

Compound in the assay “Olaparib + OSI-027”: O=C(c1cc(Cc2n[nH]c(=O)c3ccccc23)ccc1F)N1CCN(C(=O)C2CC2)CC1 [Olaparib] + COc1cccc2cc(-c3nc([C@H]4CC[C@H](C(=O)O)CC4)n4ncnc(N)c34)[nH]c12 [OSI-027] (partner 0.5 µM)
In a few lines:
as §1

Compound in the assay “Carfilzomib + Foretinib”: CC(C)C[C@H](NC(=O)[C@H](CCc1ccccc1)NC(=O)CN1CCOCC1)C(=O)N[C@@H](Cc1ccccc1)C(=O)N[C@@H](CC(C)C)C(=O)[C@@]1(C)CO1 [Carfilzomib] + COc1cc2c(Oc3ccc(NC(=O)C4(C(=O)Nc5ccc(F)cc5)CC4)cc3F)ccnc2cc1OCCCN1CCOCC1 [Foretinib] (partner 0.25 µM)
In a few lines:
as §1

For the cell line NCI-H1793, the relative viability with Olaparib + Linsitinib (first compound 0.08 µM) worked out at 0.862; in the assay with Olaparib + Linsitinib (first compound 0.253 µM), 0.738; in the assay with Olaparib + Linsitinib (first compound 2.53 µM) it was 0.942; with Olaparib + Linsitinib (first compound 8 µM) it was 0.655; in the assay with Olaparib + Decitabine (first compound 0.08 µM) it was 0.338; with Olaparib + Decitabine (first compound 0.253 µM), 0.417. Moreover, the relative viability with Olaparib + Decitabine (first compound 2.53 µM) came to 0.337; with Olaparib + Decitabine (first compound 8 µM), 0.326; with Olaparib + OSI-027 (first compound 0.08 µM), 0.279; with Olaparib + OSI-027 (first compound 0.253 µM), 0.295; with Olaparib + OSI-027 (first compound 2.53 µM), 0.29; with Olaparib + OSI-027 (first compound 8 µM), 0.243. Further, the relative viability with Carfilzomib + Foretinib (first compound 0.003162 µM) came out at 0.664; in the assay with Carfilzomib + Foretinib (first compound 0.01 µM), 0.823; with Carfilzomib + Foretinib (first compound 0.03162 µM), 0.707; with Carfilzomib + Foretinib (first compound 0.1 µM), 0.393.
